Format in all cases: cell-based
One experiment deals with C. pelliculosa. Put plainly: agar dilution test, growth inhibition of C. pelliculosa. The settings on record: Hansenula anomala; Cp = C. pelliculosa; 100% growth inhibition (kills); read-out: Minimum Growth Inhibitory Concentration. The protocol: (§1) In representative operations, compounds of the present invention were tested for their activity as antimicrobials using conventional agar dilution tests. The following Table presents results, expressed as concentration of toxicant in parts per million to achieve 100% growth inhibition (kills) of the indicated organisms.

The next experiment relates to Cephaloascus fragans. Put plainly: agar dilution test, growth inhibition of Cephaloascus fragans. The settings on record: Cf = Cephaloascus fragans; 100% growth inhibition (kills); read-out: Minimum Growth Inhibitory Concentration. Here is the method: as §1
The subject of the next experiment is P. pullulans. Put plainly: agar dilution test, growth inhibition of P. pullulans. Particulars: Pp = P. pullulans; 100% growth inhibition (kills); read-out: Minimum Growth Inhibitory Concentration. The protocol: as §1
The test system of a further experiment is T, mentagrophytes. Put plainly: agar dilution test, growth inhibition of T, mentagrophytes. The settings on record: Tm = T, 100% growth inhibition (kills), read-out: Minimum Growth Inhibitory Concentration. The protocol:
as §1

The subject of experiment [1] is Trichoderm Sp. Madison P-42. Put plainly: agar dilution test, growth inhibition of Trichoderm Sp. Madison P-42. The settings on record: Ts = Trichoderm Sp. Madison P-42; 100% growth inhibition (kills); read-out: Minimum Growth Inhibitory Concentration. The protocol: as §1
A further experiment relates to A. terreus. Put plainly: agar dilution test, growth inhibition of A. terreus. Particulars: Aspergillus terreus; At = A. terreus; 100% growth inhibition (kills); read-out: Minimum Growth Inhibitory Concentration. The protocol: as §1
The next experiment has as its system S. aureus. Put plainly: agar dilution test, growth inhibition of S. aureus. The settings on record: Staphylococcus aureus; Sa = S. aureus; 100% growth inhibition (kills); read-out: Minimum Growth Inhibitory Concentration. Here is the method:
as §1

The next experiment has as its system B. subtilis. Put plainly: agar dilution test, growth inhibition of B. subtilis. Particulars: Bs = B. subtilis, 100% growth inhibition (kills); for MIC: Bacillus subtilis, read-out: Minimum Growth Inhibitory Concentration. Also on record: key to Minimum Growth Inhibitory Concentration: *: 50% control at 500 ppm. The protocol:
as §1

The subject of a further experiment is M. phlei. Put plainly: agar dilution test, growth inhibition of M. phlei. Particulars: Mycolicibacterium phlei; Mp = M. phlei; 100% growth inhibition (kills); read-out: Minimum Growth Inhibitory Concentration. The protocol: as §1
The test system of another experiment is R. nigricans. Put plainly: agar dilution test, growth inhibition of R. nigricans. The settings on record: Rhizopus stolonifer; Rn = R. nigricans; 100% growth inhibition (kills); read-out: Minimum Growth Inhibitory Concentration. Here is the method:
as §1

For another experiment, the system named is P. aeruginosa. Put plainly: agar dilution test, growth inhibition of P. aeruginosa. Particulars: Pseudomonas aeruginosa; Pa = P. aeruginosa; 100% growth inhibition (kills); read-out: Minimum Growth Inhibitory Concentration. Here is the method:
as §1

A further experiment deals with C. albicans. Put plainly: agar dilution test, growth inhibition of C. albicans. The settings on record: Candida albicans; Ca = C. albicans; 100% growth inhibition (kills); read-out: Minimum Growth Inhibitory Concentration. The protocol: as §1
In the next experiment the test system is Ceratocystis ips. Put plainly: agar dilution test, growth inhibition of Ceratocystis ips. The settings on record: Ci = Ceratocystis ips; 100% growth inhibition (kills); read-out: Minimum Growth Inhibitory Concentration. Here is the method:
as §1

A further experiment deals with S. typhosa. Put plainly: agar dilution test, growth inhibition of S. typhosa. The settings on record: St = S. typhosa; 100% growth inhibition (kills); read-out: Minimum Growth Inhibitory Concentration. Here is the method: as §1

Each structure is given as a SMILES string. In brackets after ≈: the same amount, converted by molar mass. Where only a bound is given, the exact number is not on record here.

`CC1CN(S(=O)(=O)C(Br)(Br)Br)CC(C)O1` (stereo not shown) [1 (a), 2,6-Dimethyl-4-((tribromomethyl)sulfonyl)morpholine]: the MIC in the experiment with C. pelliculosa came out at 100 µg/mL (≈ 233 µM); in the experiment on Cephaloascus fragans, 100 µg/mL (≈ 233 µM); in the experiment on P. pullulans it was 100 µg/mL (≈ 233 µM); in the experiment on T, mentagrophytes, 100 µg/mL (≈ 233 µM); in experiment [1] it was 100 µg/mL (≈ 233 µM); with A. terreus, 10 µg/mL (≈ 23.3 µM). Moreover, the MIC with S. aureus amounted to 500 µg/mL (≈ 1160 µM); in the experiment with B. subtilis, 100 µg/mL (≈ 233 µM); with M. phlei, 100 µg/mL (≈ 233 µM); in the experiment with R. nigricans it was 100 µg/mL (≈ 233 µM); in the experiment on P. aeruginosa it was 100 µg/mL (≈ 233 µM); in the experiment with C. albicans it was 100 µg/mL (≈ 233 µM). Moreover, the MIC in the experiment on Ceratocystis ips stood at 100 µg/mL (≈ 233 µM).

`CC1CN(S(=O)(=O)C(Br)Br)CC(C)O1` (stereo not shown) [1 (b), 2,6-Dimethyl-4-((dibromomethyl)sulfonyl)morpholine]: the MIC was 500 µg/mL (≈ 1420 µM) with C. pelliculosa; 500 µg/mL (≈ 1420 µM) with Cephaloascus fragans; 500 µg/mL (≈ 1420 µM) in the experiment on P. pullulans; 500 µg/mL (≈ 1420 µM) in the experiment with T, mentagrophytes; over 500 µg/mL in experiment [1]; 500 µg/mL (≈ 1420 µM) with A. terreus. Besides, the MIC with S. aureus is over 500 µg/mL; in the experiment on M. phlei, over 500 µg/mL; in the experiment with R. nigricans, 500 µg/mL (≈ 1420 µM); with P. aeruginosa it was over 500 µg/mL; with S. typhosa it was over 500 µg/mL; in the experiment with C. albicans it was 500 µg/mL (≈ 1420 µM). In addition, the MIC with Ceratocystis ips was over 500 µg/mL. Moreover, in the experiment with B. subtilis, the “Minimum Growth Inhibitory Concentration” value is listed as “*”.

With `O=S(=O)(N1CCOCC1)C(Br)(Br)Br` [2 (b)], the MIC in the experiment with C. pelliculosa was 100 µg/mL (≈ 249 µM); in the experiment with Cephaloascus fragans, 100 µg/mL (≈ 249 µM); in the experiment on P. pullulans, 100 µg/mL (≈ 249 µM); in the experiment with T, mentagrophytes, 100 µg/mL (≈ 249 µM); in [1], 100 µg/mL (≈ 249 µM); in the experiment on A. terreus, 100 µg/mL (≈ 249 µM). For the same compound, the MIC worked out at 500 µg/mL (≈ 1240 µM) in the experiment with S. aureus; 100 µg/mL (≈ 249 µM) with B. subtilis; 100 µg/mL (≈ 249 µM) in the experiment on M. phlei; 100 µg/mL (≈ 249 µM) with R. nigricans; 100 µg/mL (≈ 249 µM) in the experiment with P. aeruginosa; 100 µg/mL (≈ 249 µM) in the experiment on C. albicans. The MIC in the experiment with Ceratocystis ips worked out at 100 µg/mL (≈ 249 µM).
